Experimental data from patent publication US6805880B1, “Pharmaceutical delivery system for vitamin C and vitamin E and use of a combination of vitamin C and E for preventing or treating conditions involving oxidative stress” (Ferrosan A/S, priority 1999, dated 2004).
Read-outs that look alike come from different tables or passages of the source.

What was measured:
[1] = in vivo
Experimental: The inventors conducted a controlled trial with a formulation including both slow release vitamin C and conventional release vitamin E (250 mg AA and 91 mg α-tocopherol). 520 men and women, smokers and non-smokers, were randomised to vitamin C slow release, vitamin E, a formulation with vitamin E and slow release vitamin C, or placebo (Table 4).
In a double-masked 2×2 factorial trial, 520 smoking and non-smoking men and postmenopausal women aged 45-69 years with serum cholesterol ^35.0 […] were randomised in these four strata to receive either 182 mg of d-α-tocopheryl acetate, 500 mg of slow-release vitamin C daily, both or placebo for three years. Atherosclerotic progression was defined as linear regression slope of the mean ultrasonographically assessed common carotid intima-media thickness (IMT) over time.
(§1) The study consisted of 8-week dietary counseling and placebo lead-in phase and a 3-year double-masked phase, for which the subjects were randomly allocated to either (i) […] of d-α-tocopheryl acetate twice daily (272 IU of vitamin E a day), ii) 250 mg slow-release ascorbic acid twice daily, (iii) both d-α-tocopheryl acetate and ascorbic acid in a single tablet, or (iv) placebo only. After the double-blind 3-year period, the study is continuing for another three years as an open study. The doses were chosen on the basis of pilot and kinetic studies (13, 15). The subjects were randomised separately in four strata of approximately equal size: (1) smoking (^35 cigarettes/day) men, (2) nonsmoking men, (3) smoking postmenopausal women, and (4) nonsmoking postmenopausal women. All subjects gave a written informed consent.
Ascorbic acid was stabilised in heparin plasma with metaphosphoric acid immediately after plasma separation, and frozen at −80° C. Combined ascorbic acid and dehydroascorbic acid were determined with an HPLC method (39). Heparin plasma for α-tocopherol was extracted with ethanol and hexane and measured by a reversed phase HPLC method (15). Cholesterol and triglycerides were determined with enzymatic […] methods (30). Serum LDL cholesterol was measured based on precipitation using polyvinyl sulfate and HDL cholesterol after precipitation with magnesium chloride (30). Plasma fibrinogen concentration was determined with a clotting method (30), plasma homocysteine with an HPLC method (44), and serum ferritin by an immunoradiometric assay (Bio Rad, Quantimune, Hercules, Calif.). Dietary intake of foods and nutrients was assessed at baseline by 4-day instructed food recording. Physical activity was assessed by 12-month checked questionaire (43). Blood pressure was measured manually in sitting position after a rest of 10 minutes, three measurements at 3 minutes' intervals.

[2] = Experimental: as §1
[3] = tested on: common carotid artery intima-media thickness; assay: ASAP study: progression of common carotid atherosclerosis (slope of ultrasonographic mean CCA-IMT); assay type: in vivo, human; settings: for mean adjusted 3-year change of the mean carotid artery intima-media thickness (supplement: Yes): multivariate general linear model; for OR of atherosclerotic progression: double placebo as reference; for average unadjusted increase (slope) of the mean CCA-IMT: 3 years; for treatment effect on the proportion with progression: compared with placebo
Experimental: All subjects gave a written informed consent.
The subjects came to baseline visits and were randomised. Follow-up visits were 6, 12, 18, 24, 30 and 36 months later. Supplements were given, returned tablets were counted and ultrasonographic assessment of common carotid artery (CCA) intima-media thickness (IMT) was carried out at all these seven visits.
Equipment: Two identical Biosound Phase 2 systems were used (Biosound, Indianapolis, Ind., USA) equipped with a 8-10 MHz annular array transducer, with a measurement precision of 0.03 mm (41). The scannings were videotaped with PAL S-VHS Panasonic AG 7330E VCR.
Scanning (imaging) procedure and videorecording: The ultrasonographic scanning of the common carotid arteries (CCA), the carotid bulbs and the proximal internal carotid artery (ICA) was performed after a supine rest of 10 minutes, the subject in the supine position. […] The scanning was started with a diagnostic examination of entire accessible carotid tree, to find the most severe lesions. Secondly, the site of the greatest IMT at baseline in the CCA far wall was located and scanned thoroughly. This area was scanned from three angles: anterolateral, lateral and posterolateral.
Measurement from videotapes: All IMT measurements (both baseline and follow-up) from videotapes were made at the same site and angle at all examinations of each subject, which was the site with the greatest IMT (in any angle) which was clearly visible at baseline in the far wall of in CCA below the bulb. At this location IMT was measured in diastole for a length of 10 mm (or shorter, if not visible) in one angle for the far wall. Most often this was the distal centimeter of CCA. All IMT measurements were carried out after the 36-month examination.
Ultrasound image analysis: Computer analysis of ultrasound images to measure IMT was performed with a reading station equipped with Data Translation DT 2861 video frame grabber interfaced to a Panasonic AG 7355 VCR. The Prosound software, utilising automated boundary detection, was used. IMT was determined as the average difference at on the average 100 points between intima/lumen and media/adventitia interface (42).
Construction of the main outcome variable: Atherosclerotic progression was defined a priori as the linear regression slope of the mean common carotid IMT over six or seven points of follow-up time (0, 6, 12, 18, 24, 30 and 36 months). For 34 subjects, one follow-up was missing. First, the mean CCA-IMT from the right and the left side was averaged, and then the slope was computed across time-specific means.
All study participants for whom the main outcome variable was available, were included in the statistical analysis. Analyses were according to the intention-to-treat principle. As the subjects were randomised separately in four strata (smoking men, non-smoking men, smoking women, non-smoking women), this stratification was maintained also in the statistical analysis. As the a priori power calculations were based on stratified analysis in men and women, the primary statistical analysis was done in these two strata (Table 6).
To test the consistency of results, the outcome variable, the slope of the mean CCA-IMT over all available follow-up assessments, was used both as a continuous variable in general linear models and as a dichotomous variable in logistic models. The cut-off for the dichotomisation was the median among all 225 men. […] Odds ratios were estimated as antilogarithms of coefficients and their confidence intervals (Cl) based on normality assumption of SPSS 8.0 for Windows.
Three dummy variables were constructed to indicate whether the participant was randomised to receive only vitamin E, only vitamin C or both vitamins, and these were entered jointly in logistic models. The comparisons in the linear models were between each treatment group and all other groups. […]

[4] = female, human, in vivo, 3 years
[5] = men (n = 225), multivariate logistic model
[6] = women (n = 233), multivariate logistic model

SMILES: O=C1O[C@H]([C@@H](O)CO)C(O)=C1O [Vitamin C, ascorbic acid]
- change of plasma α-tocopherol (vitamin E in plasma) ([1]; female, human): 4.0%
- change of plasma α-tocopherol (vitamin E in plasma) ([1]; male, human): 5.1%
- mean plasma α-tocopherol concentration, after supplementation ([1]; male, human): 33.9 µmol/L
- mean plasma α-tocopherol concentration, initial value ([1]; male, human): 32.3 µmol/L
- safety of the supplements ([2]; 3 years): safe
- drop-outs: Adverse event [2, 4]: 2
- drop-outs: Severe adverse event [2, 4]: 1
- drop-outs: Adverse event ([2]; male, human, in vivo, 3 years): 2
- drop-outs: Severe adverse event ([2]; male, human, in vivo, 3 years): 1
- drop-outs: Death ([2]; men, number of subjects): 1
- drop-outs: Death ([2]; men, number of subjects, listed as vitamin C): One
- drop-outs: Death ([2]; women, number of subjects): 0
- mean adjusted 3-year change of the mean carotid artery intima-media thickness (supplement: Yes) ([3]; men (n = 225)): 0.0119 mm/year
- OR of atherosclerotic progression [3, 5]: 0.44
- average unadjusted increase (slope) of the mean CCA-IMT ([3]; men, placebo 0.020): 0.017 mm/year
- treatment effect on the proportion with progression ([3]; men): non-significant
- OR of atherosclerotic progression ([3]; non-smoking men (n = 125)): 0.30
- OR of atherosclerotic progression ([3]; non-smoking women (n = 123)): 0.99
- effect on atherosclerotic progression ([3]; smoking men): nonsignificant trend towards protection
- OR of atherosclerotic progression ([3]; smoking men (n = 100)): 0.45
- OR of atherosclerotic progression ([3]; smoking women (n = 110)): 0.69
- mean adjusted 3-year change of the mean carotid artery intima-media thickness (supplement: Yes) ([3]; women (n = 233)): 0.0174 mm/year
- OR of atherosclerotic progression [3, 6]: 1.08
- average unadjusted increase (slope) of the mean CCA-IMT ([3]; women, placebo 0.016): 0.017 mm/year

SMILES: CC(=O)Oc1c(C)c(C)c2c(c1C)CC[C@@](C)(CCC[C@H](C)CCC[C@H](C)CCCC(C)C)O2 [Vitamin E, d-α-tocopheryl acetate]
- mean plasma α-tocopherol concentration, after supplementation [1]: 60.1 µmol/L
- mean plasma α-tocopherol concentration, initial value [1]: 31.7 µmol/L
- safety of the supplements ([2]; 3 years): safe
- drop-outs: Adverse event ([2]; men, number of subjects): 1
- drop-outs: Death ([2]; men, number of subjects): 3
- drop-outs: Severe adverse event ([2]; men, number of subjects): 1
- drop-outs: Death ([2]; men, number of subjects, listed as vitamin): three
- drop-outs: Adverse event ([2]; women, number of subjects): 3
- drop-outs: Death ([2]; women, number of subjects): 0
- drop-outs: Severe adverse event ([2]; women, number of subjects): 2
- mean adjusted 3-year change of the mean carotid artery intima-media thickness (supplement: Yes) ([3]; men (n = 225)): 0.0118 mm/year
- OR of atherosclerotic progression [3, 5]: 0.56
- average unadjusted increase (slope) of the mean CCA-IMT ([3]; men, placebo 0.020): 0.018 mm/year
- treatment effect on the proportion with progression ([3]; men): non-significant
- OR of atherosclerotic progression ([3]; non-smoking men (n = 125)): 1.07
- OR of atherosclerotic progression ([3]; non-smoking women (n = 123)): 1.13
- OR of atherosclerotic progression ([3]; smoking men (n = 100)): 0.21
- OR of atherosclerotic progression ([3]; smoking women (n = 110)): 0.76
- mean adjusted 3-year change of the mean carotid artery intima-media thickness (supplement: Yes) ([3]; women (n = 233)): 0.0165 mm/year
- OR of atherosclerotic progression [3, 6]: 1.05
- average unadjusted increase (slope) of the mean CCA-IMT ([3]; women, placebo 0.016): 0.015 mm/year
